Earlier results in US20250262218A1, “COMPOSITIONS, FORMULATIONS AND METHODS FOR STIMULATING RESPIRATION” (Auros Pharma LLC, priority 2024, published 2025).
Like-named read-outs stand apart in the source and are kept apart here.

- solubility (in alcohol): sparingly soluble
- solubility (in ether): practically insoluble
- solubility (in water): soluble
- stability (light and air): stable in light and air
Structure (SMILES): CCN1CC(CCN2CCOCC2)C(c2ccccc2)(c2ccccc2)C1=O (stereo not shown) [doxapram, 1-ethyl-4-(2-morpholinoethyl)-3,3-diphenyl-2-pyrrolidinone]
